Like-named read-outs stand apart in the source and are kept apart here. Blank lines part the entries; values can stand above or below the molecule they belong to.
Tests used:
[1] = tested on: MCF-7 breast cancer cells; test: MTT cell viability assay, MCF-7 cells; format: cell-based; conditions: Homo sapiens, MCF7, 72 h, 10% FBS-supplemented medium, read-out: IC50 in inhibiting the viability of MCF-7 breast cancer cells
Protocol: (§1) Cell viability was determined using the 3-(4,5-dimethylthiazol-2-yl)-2,5-diphenyltetrazolium bromide) (MTT) assay. LNCaP and MCF-7 cells were seeded in 96-well plates (5000 cells/well) and incubated in their respective culture media supplemented with 10% FBS for 24 h. […] Drug-containing medium was then replaced with 1×MTT (0.5 mg/mL in RPMI 1640), followed by incubation at 37° C. for 2 h. After removal of medium, the reduced MTT dye was solubilized in 200 μL/well DMSO, and absorbances were measured at 570 nm.

[2] = tested on: LNCaP prostate cancer cells; test: MTT cell viability assay, LNCaP cells; format: cell-based; conditions: Homo sapiens
Protocol: The compounds were tested for their ability to decrease LNCaP prostate cancer cell viability as measured by the 3-(4,5-dimethylthiazol-2-yl)-2,5-diphenyltetrazolium bromide) (MTT) assay.
as §1

cancer cells = conditions: reported in literature; cited from earlier work
glucose metabolism = test: In vitro potency in blocking glucose metabolism; format: cell-based
[3] = tested on: normal prostate epithelial cells (PrECs)
Protocol: LNCaP hormone-responsive prostate cancer cells and MCF-7 ERα-positive breast cancer cells were obtained from the American Type Culture Collection (Manassas, Va.) and maintained with 10% fetal bovine serum (FBS)-supplemented RPMI 1640 medium and F12/DMEM medium, respectively. Nonmalignant prostate epithelial cells (PrEC) were maintained in prostate epithelial growth medium (PrEGM) (Lonza Inc., Walkersville, Md.). All cells were cultured at 37° C. in a humidified incubator containing 5% CO2. […] Glucose-free RPMI 1640 medium was purchased from Invitrogen (Carlsbad, Calif.). 2-DG, resveratrol, 3-methyladenine (3-MA), nicotinamide and splitomicin were purchased from Sigma-Aldrich (St. Louis, Mo.). The AMPK inhibitor Compound C and cycloheximide were obtained from Calbiochem (San Diego, Calif.). These agents were added to medium with a final DMSO concentration of 0.1%.
as §1

[4] = tested on: Sirt1 gene expression in LNCaP cells; test: Time course of Sirt1 expression in LNCaP cells (Western blot/RT-PCR); format: cell-based; conditions: OSU-CG12 10 μM, 2-DG 10 mM
Protocol: Total RNA was isolated from drug-treated LNCaP cells using the RNeasy mini kit (Qiagen, Valencia, Calif.), and then reverse-transcribed to cDNA using the Omniscript RT Kit (Qiagen) according to manufacturer's instructions. PCR products were separated electrophoretically in 1% agarose gels and visualized by ethidium bromide staining.
Transfections were performed by electroporation using Nucleofector kit R of the Amaxa Nucleofector system (Amaxa Biosystems, Cologne, Germany). LNCaP cells were transfected with the following plasmids or siRNA: WT- and H363Y-Flag-Sirt1 (DN-Sirt1), WT- and K45R-Myc-AMPK (DN-AMPK), GFP-LC3, TSC2 shRNA, and DDIT3 siRNA (GADD153). […] For the fluorescent microscopic analysis, LNCaP cells transfected with the GFP-LC3 expression plasmid or with scrambled or TSC2 shRNA were treated as indicated for 36 h. After cells were fixed with 3.7% formaldehyde at room temperature for 20 min, nuclear counterstaining was performed using a 4,6-diamidino-2-phenylindole (DAPI)-containing mounting medium (Vector Laborotaries, Burlingame, Calif.) before examination. Images were observed using a Nikon microscope (Eclipse TE300).

[5] = tested on: LPS-stimulated IL-6 production in THP-1 macrophages; test: ELISA of LPS-stimulated IL-6 production in THP-1 macrophages; format: cell-based, human; conditions: 10 μM; for first-tier screening result (AMPK/mTOR activation status and IL-6/IL-6 receptor signaling): LPS-stimulated THP-1 macrophages; for inhibition at 10 µM: Homo sapiens, 6 h, LPS-stimulated THP-1, read-out: inhibition of IL-6 production
Protocol: Cells and cell culture. THP-1 monocytic cells were purchased from the American Type Culture Collection (Rockville, Md.), and maintained with L-glutamine-containing RPMI 1640 supplemented with 10% fetal bovine serum (FBS), 0.25% glucose, 0.01% sodium pyruvate, 50 μM 2-mercaptoethanol, and 0.1 ml/ml penicillin/streptomycin/L-glutamine. Differentiation of THP-1 monocytes into macrophages was carried out by exposure to PMA (50 nM) in the aforementioned RPMI 1640 medium for 24 h. Colon-26 (C-26) adenocarcinoma cells were provided by a researcher at The Ohio State University. The C-26 cells were maintained in RPMI 1640 medium supplemented with 5% FBS and 1% penicillin/streptomycin.
ELISA. IL-6 release by differentiated THP-1 macrophages in response to 10 ng/ml of LPS was analyzed by using the IL-6 ELISA kit (Cayman Chemical Co.; Ann Arbor, Mich.) according to the manufacturer's instruction in triplicate. The effect of each test compound on LPS-stimulated IL-6 release is presented as percent inhibition and was calculated using the following formula: percentage inhibition=100%×{1−[(O.D. of sample−O.D. of control)/(O.D. of LPS−O.D. of control)]}.

[6] = tested on: human tumor cell lines of the cancer screening panel; test: NCI60 cell line screening; format: cell-based; conditions: 48 h, SRB; variety of cancer cell types
Protocol: The NCI60 screening method was carried out using the following methodology. The human tumor cell lines of the cancer screening panel were grown in RPMI 1640 medium containing 5% fetal bovine serum and 2 mM L-glutamine. The cells were then inoculated into 96 well microtiter plates in 100 μL at plating densities ranging from 5,000 to 40,000 cells/well depending on the doubling time of individual cell lines. After cell inoculation, the microtiter plates are incubated at 37° C., 5% CO2, 95% air and 100% relative humidity for 24 h prior to addition of the thiazolidinedione derivatives. […]
Following drug addition, the plates were incubated for an additional 48 h at 37° C., 5% CO2, 95% air, and 100% relative humidity. […] Bound stain is subsequently solubilized with 10 mM trizma base, and the absorbance was read on an automated plate reader at a wavelength of 515 nm. […] Using the seven absorbance measurements [time zero, (Tz), control growth, (C), and test growth in the presence of drug at the five concentration levels (Ti)], the percentage growth is calculated at each of the drug concentrations levels. Percentage growth inhibition is calculated as: [(Ti−Tz)/(C−Tz)]×100 for concentrations for which Ti>/=Tz [(Ti−Tz)/Tz]×100 for concentrations for which Ti<Tz.
Three dose response parameters were calculated for each experimental agent. […]

THP-1 cells = test: MTT viability of THP-1 cells; format: cell-based, human; conditions: at the concentrations used for IL-6 ELISA (dose range b224, 10 μM b226, 1 μM b229)
[7] = tested on: [3H]-2-DG uptake into LNCaP cells; test: Glucose uptake assay ([3H]-2-DG); format: cell-based; conditions: OSU-CG12 at 5 and 10 μM, resveratrol at 50 and 100 μM, P<0.05
Protocol: After washing cells with PBS, glucose uptake was initiated by addition of 1 mL of PBS containing 1 μCi/mL [^3H]-2-DG (Perkin Elmer, Waltham, Mass.) and […] nonradioactive 2-DG. After 5 min, glucose uptake was terminated by extensive washing with PBS, and cells were solubilized in 0.1% SDS buffer. Aliquots were taken for measurements of radioactivity using a scintillation counter LS6500 (Beckman).

[8] = LNCaP, MTT, 72 h, 10% FBS-supplemented medium, read-out: IC50 in inhibiting the viability of LNCaP prostate cancer cells

SMILES: O=CC[C@@H](O)[C@H](O)[C@H](O)CO [2-DG, 2-deoxyglucose]
IC50 [1]: 4200 µM | IC50 [2, 8]: 5500 µM | dose range inducing autophagy in cancer cells (cancer cells): 5 to 25 mM | IC50 (glucose metabolism): ≥ 4000 µM | cytotoxicity to normal prostate epithelial cells (PrECs) [3]: low cytotoxicity | duration of transient transcriptional activation of Sirt1 gene expression [4]: 4 h

SMILES: CCOc1c(C)c(C)c2c(c1C)CCC(C)(COc1ccc(C=C3SC(=O)NC3=O)cc1Br)O2 (stereo not shown) [Compound 8, 5-[3-Bromo-4-(6-ethoxy-2,5,7,8-tetramethyl-chroman-2-ylmethoxy)-benzylidene]-thiazolidine-2,4-dione]
first-tier screening result (AMPK/mTOR activation status and IL-6/IL-6 receptor signaling) [5]: active | inhibition at 10 µM [5]: > 80%

SMILES: CCCCOc1c(C)c(C)c2c(c1C)CCC(C)(COc1ccc(C=C3SC(=O)NC3=O)cc1OC)O2 (stereo not shown) [Compound 12, 5-[4-(6-Butoxy-2,5,7,8-tetramethyl-chroman-2-ylmethoxy)-3-methoxy-benzylidene]-thiazolidine-2,4-dione]
first-tier screening result (AMPK/mTOR activation status and IL-6/IL-6 receptor signaling) [5]: active | inhibition at 10 µM [5]: > 80%

SMILES: Cc1c(C)c2c(c(C)c1OCCCC#N)CCC(C)(COc1ccc(C=C3SC(=O)NC3=O)cc1Br)O2 (stereo not shown) [Compound 21, 4-{2-[2-Bromo-4-(2,4-dioxo-thiazolidin-5-ylidenemethyl)-phenoxymethyl]-2,5,7,8-tetramethyl-chroman-6-yloxy}-butyronitrile]
first-tier screening result (AMPK/mTOR activation status and IL-6/IL-6 receptor signaling) [5]: active | inhibition at 10 µM [5]: > 80%

SMILES: CCCN1C(=O)SC(=Cc2ccc(O)c(C(F)(F)F)c2)C1=O [Compound 44, 5-(4-Hydroxy-3-trifluoromethyl-benzylidene)-3-propyl-thiazolidine-2,4-dione]
inhibition at 10 µM [5]: > 80%

SMILES: COc1ccc(S(=O)(=O)Nc2ccc(C=C3SC(=O)N(CC4(C)CCCCC4)C3=O)cc2)cc1 [Compound 49, 4-Methoxy-N-{4-[3-(1-methyl-cyclohexylmethyl)-2,4-dioxo-thiazolidin-5-yli-denemethyl]-phenyl}-benzenesulfonamide]
first-tier screening result (AMPK/mTOR activation status and IL-6/IL-6 receptor signaling) [5]: active

SMILES: CC1(CN2C(=O)SC(=Cc3ccc(NS(=O)(=O)c4ccc([N+](=O)[O-])cc4)cc3)C2=O)CCCCC1 [Compound 54, N-{4-[3-(1-Methyl-cyclohexylmethyl)-2,4-dioxo-thiazolidin-5-ylidenemethyl]-phenyl}-4-nitro-benzenesulfonamide]
first-tier screening result (AMPK/mTOR activation status and IL-6/IL-6 receptor signaling) [5]: active | inhibition at 10 µM [5]: > 80%

SMILES: CCC(CC)CN1C(=O)S/C(=C\c2ccc(O)c(C(F)(F)F)c2)C1=O [OSU-CG5, (Z)-3-(2-Ethyl-butyl)-5-(4-hydroxy-3-trifluoromethyl-benzylidene)-thiazolidine-2-4-dione]
antitumor potency in NCI 60 cell line screening [6]: significantly antitumor potency

IC50 [1]: 11 µM | IC50 [2, 8]: 12 µM
SMILES: C=CCOc1c(C)c(C)c2c(c1C)CCC(C)(COc1ccc(/C=C3\SC(=O)NC3=O)cc1Br)O2 (stereo not shown) [STG28]

IC50 [1]: 42 µM | IC50 [2, 8]: 70 µM
SMILES: CC1(COc2ccc(CC3SC(=O)NC3=O)cc2)CCCCC1 (stereo not shown) [ciglitazone]
effect on viability of THP-1 cells (THP-1 cells): neither agent inhibited the viability of THP-1 cells

SMILES: Oc1ccc(C=Cc2cc(O)cc(O)c2)cc1 [resveratrol]
IC50 [1]: 60 µM | IC50 [2, 8]: 110 µM | IC50 ([2]; summary over LNCaP and MCF-7 cells, read-out: IC50 in suppressing cancer cell growth): 60 to 110 µM | dose range inducing autophagy in cancer cells (cancer cells): 0.05 to 0.1 mM | IC50 (glucose metabolism): ≥ 50 µM | cytotoxicity to normal prostate epithelial cells (PrECs) [3]: low cytotoxicity | inhibition of glucose uptake [7]: significantly inhibit glucose uptake

IC50 [1]: 70 µM | IC50 [2, 8]: 70 µM
SMILES: Cc1c(C)c2c(c(C)c1O)CCC(C)(COc1ccc(CC3SC(=O)NC3=O)cc1)O2 (stereo not shown) [troglitazone]

From patent US8383656B2, “Thiazolidinedione energy restriction-mimetic agents” (The Ohio State University Research Foundation, priority 2009, dated 2013)
